# Results: patent US20240269291A1, “Transcutol-Polyol-Active Agent Ternary Complex, Pharmaceutical Composition for Topical Use Comprising Same, Method for Obtaining Same and Use Thereof in Different Pathologies” (FUNDACIÓN GAIKER, priority 2021, published 2024)
# Columns and labels:
# [1] = system: sick people; assay: Application of the cream on sick people; details: in vivo
# Description: In the numerous tests that were carried out on sick people, it has been observed that the introduction of a correct concentration of polyphenols (with “correct” being understood as the fact that there are 200 mg of the polyphenol in each 5 g application of pharmaceutical composition) in a solution for topical use (preferably a cream) has very beneficial effects in treating at least the following pathologies: subcutaneous inflammations such as fasciitis and fasciosis, tendon inflammation or irritation (tendonitis), carpal tunnel inflammation, varicose vein reduction, joint inflammation and blows and bruises.
# [2] = safety index of 100 times, cited from earlier work
# [3] = printed as negative log P; cited from earlier work
crossing of the blood-brain barrier [1],Compound,recommended limit via the dermal route ([2]; dermal route) [mg/kg],recommended limit via the oral route ([2]; oral route) [mg/kg],log P [3]
able to cross the blood-brain barrier,C[C@@H]1O[C@@H](OC[C@H]2O[C@@H](Oc3c(-c4ccc(O)c(O)c4)oc4cc(O)cc(O)c4c3=O)[C@H](O)[C@@H](O)[C@@H]2O)[C@H](O)[C@H](O)[C@H]1O [rutin],–,–,–
–,"CCOCCOCCO [transcutol, 2-(2-Ethoxyethoxy) ethanol]",20,10,~0.5
